Measured values reported in publication PMC11302339, “A series of pyrimidine-based antifungals with anti-mold activity disrupt ER function in Aspergillus fumigatus” (Microbiology Spectrum, 2024).
Converted amounts (≈) assume the structure as drawn.

Assays:
[1] = test system: A. fumigatus UPR-responsive genes; assay: A. fumigatus UPR gene expression (qRT-PCR); type: cell-based, Aspergillus fumigatus; details: single agent (16 µg/mL 1, or 1 mM DTT for 1 hour); normalized to DMSO
Procedure: We cultured 5 × 10^6 CEA10 conidia/mL in liquid GMM for 18 hours at 37°C with shaking at 250 rpm. Cultures were treated with either DMSO or 16 µg/mL 1 for 2 hours at 37°C, 250 rpm. Then 1 mM DTT or water was added, and cultures were incubated for an additional hour. Mycelia were collected with vacuum filtration and immediately frozen with liquid nitrogen. Tissue was lyophilized then ground with glass beads with a bead beater. RNA was extracted in 1 mL of TRIazole solution (Life Technologies, Cat # 15596026), then RNA was purified with two rounds of chloroform extraction. Five micrograms of RNA was treated with TURBO DNA-free kit (Invitrogen, Cat # AM1907) according to the manufacturer’s protocol. Five hundred nanograms of DNAse-treated RNA was used for cDNA synthesis with iScript cDNA synthesis kit (BioRad, Cat # 1708891), then cDNA was diluted 1:5 with ddH2O. Quantitative real time PCR analysis was performed in 20 µL reactions using 2 µL of dilute cDNA per reaction with iQ SYBR Green Supermix (BioRad). Samples were run on a BioRad CFX Connect using a three-step amplification with 54°C annealing temperature and melt curve analysis. Gene expression is normalized to tubA and tef1 expression. Gene expression was performed in biological triplicate. Primers to detect HacA splicing and targets were designed as previously described ([51]).

A. fumigatus = assay: MIC testing (CLSI broth dilution); type: cell-based; details: Aspergillus fumigatus, 48 h, strain CEA10; CLSI conditions, 48 h; read-out: MIC
Procedure: (§1) MICs were determined using Clinical and Laboratory Standards Institute guidelines ([48], [49]). All yeasts were cultured overnight in 3 mL YPD at 30°C, then washed twice in sterile phosphate-buffered saline (PBS). Twofold serial dilutions of each drug were prepared in RMPI + MOPS, then 1 × 10^3 cells were added per well. For mold species, wells were inoculated with 1.25 × 10^3 conidia per well. Plates were incubated at 37°C for 24 (Candida spp. and S. cerevisiae), 48 (Aspergillus spp., M. circinelloides, S. apiospermum, and L. prolificans), or 72 (C. neoformans and F. oxysporum) hours. S. cerevisiae BY4743 MICs were tested in YPD due to nutritional requirements of this strain. Each assay was performed in technical duplicate in at least two independent experiments performed on different days.

C. neoformans = assay: MIC testing (CLSI broth dilution); type: cell-based; details: Cryptococcus neoformans, 72 h, strain H99; CLSI conditions
Procedure: as §1

[2] = test system: A. fumigatus collagenase secretion; assay: Detection of secreted collagenase by azocoll; type: cell-based, Aspergillus fumigatus; details: treated with 1/2 MIC of each compound
Procedure: 1 × 10^6 CEA10 conidia/mL were cultured in 25 mL liquid GMM for 18 hours, then mycelia were washed with sterile ddH2O and transferred to 10% FBS-MM and treated with DMSO or the indicated concentration of drugs. Cultures were incubated at 37°C, 250 rpm, for an additional 24 hours, then the supernatant and biomass were collected. One milliliter of supernatant was spun at top speed for 5 min. Azocoll of <50 mesh (Sigma, Cat # 194932) was washed in buffer (50 mM Tris, pH 7.5, 1 mM NaCl, and 0.01% sodium azide) then resuspended to 5 mg/mL. Fifteen microliters of culture supernatant was added to the 2 mL azocoll solution and incubated at 37°C with shaking at 300 rpm for 3 hours in the dark. Reactions were spun at maximum speed for 3 min; 200 µL of supernatant was then transferred to a 96-well plate; and Abs 520 was measured. Biomass was lyophilized, and absorbance readings were normalized to milligram tissue. Data represent the mean and SEM of biological triplicates with technical duplicates except for compounds 5 and 7, which are biological duplicates due to the limited availability of the drug and the required culture size for this assay.

A. fumigatus biofilms = assay: A. fumigatus hyphal (biofilm) activity, resazurin; type: cell-based, Aspergillus fumigatus; details: conidia germinated 14 hours, escalating doses 24 hours
Procedure: To determine antifungal activity against A. fumigatus hyphae, a 96-well plate was inoculated with 1 × 10^3 conidia per well in 100 µL RPMI + MOPS with the edge wells filled with 200 µL sterile water to minimize edge effects. Plates were incubated at 37°C for 14 hours. A twofold dilution series of 1 or 7 was prepared in RPMI + MOPS at 2× concentration with 0.002% resazurin, then 100 µL of the drug was added to wells, and plates were incubated for an additional 24 hours. Fluorescence was measured with an excitation wavelength of 570 nm and an emission wavelength of 615 nm. Data are representative of two independent experiments performed in biological triplicate.

Compound	increase in BipA expression [1] [fold]	increase in PdiA expression [1] [fold]	increase of spliced HacA (HacA^A) [1]	MIC (A. fumigatus) [µg/mL]	MIC (C. neoformans) [µg/mL]	collagenase secretion [2]	inhibition of hyphal growth (A. fumigatus biofilms)
O[C@@H](CS)[C@@H](O)CS (racemic) [DTT, 1,4-dithiothreitol, reference compound]	5	2	~ 1.5 fold				
OC1CC(c2cc(N3CCC(Cc4ccc(F)cc4)CC3)ncn2)C1 (centres unmarked) [compound 3]				64 (≈ 187 µM)	4 (≈ 11.7 µM)	inhibition of collagenase secretion was similar	
OC1CC(c2cc(N3CCC(CCN4CCCC4)CC3)ncn2)C1 (centres unmarked) [compound 4]				> 128	128 (≈ 387 µM)		
COC1CCN(c2cc(C3CC(O)C3)ncn2)CC1 (centres unmarked) [compound 6]				> 128	> 128		
OC1CC(c2cc(NCC3CCN(CCc4ccccc4)CC3)ncn2)C1 (centres unmarked) [compound 7]				> 128	> 128	modest but insignificant effect	did not show inhibitory activity
